From patent US20240025886A1, “INHIBITORS OF IGF2BP1-RNA BINDING” (YISSUM RESEARCH DEVELOPMENT COMPANY OF THE HEBREW …, priority 2020, published 2024)
Where “and” joins values, the source holds several entries; their conditions need not be identical. Equal entries are not always repeated. Entries after “also recorded” stand apart in the source; their conditions may differ.

Assays:
[1] = molecular target: T1, Igf2bp1 binding to Kras 6 RNA (Homo sapiens, UniProt Q9NZI8); test: Fluorescence polarization (FP) assay of Igf2bp1 binding to fluorescent Kras 6 RNA; settings: FP dose response; read-out: IC50 for inhibition of Igf2bp1 binding to Kras 6 RNA
T1 construct: Recombinant full-length Igf2bp1 protein; made in house; host or cells: E. coli BL21(DE3)
T1 sequence (Q9NZI8 whole entry): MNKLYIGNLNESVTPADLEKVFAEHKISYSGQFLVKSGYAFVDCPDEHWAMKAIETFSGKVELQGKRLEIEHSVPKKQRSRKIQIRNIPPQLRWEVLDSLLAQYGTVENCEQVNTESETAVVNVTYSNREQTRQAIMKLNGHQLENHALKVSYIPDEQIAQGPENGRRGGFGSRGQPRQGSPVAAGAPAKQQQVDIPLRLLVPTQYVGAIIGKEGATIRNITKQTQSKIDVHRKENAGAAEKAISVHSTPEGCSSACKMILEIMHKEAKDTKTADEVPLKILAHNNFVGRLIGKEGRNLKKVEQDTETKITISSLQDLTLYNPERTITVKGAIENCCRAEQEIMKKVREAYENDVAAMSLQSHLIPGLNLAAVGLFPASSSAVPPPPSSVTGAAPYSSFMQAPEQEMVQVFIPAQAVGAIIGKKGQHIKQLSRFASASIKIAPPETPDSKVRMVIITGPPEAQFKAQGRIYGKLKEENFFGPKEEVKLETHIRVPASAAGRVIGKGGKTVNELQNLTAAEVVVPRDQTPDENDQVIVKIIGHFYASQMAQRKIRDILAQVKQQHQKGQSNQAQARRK
Procedure: For the small molecule screen, compounds were obtained from the collection maintained at the Grand Israel National Center for Personalized Medicine, consisting of molecules purchased from commercial vendors. Labelled RNA (10 nM) was incubated with recombinant Igf2bp1 protein (400 nM) in FAM-RNA buffer (10 mM Tris pH 8.0, 75 mM KCl, 0.5 mM EDTA, 1 mM DTT, 0.0188 U/μL RNAsin, 0.0005 μg/mL heparin, 0.0001 μg/μL tRNA, 0.01% Triton X-100, 3 mM MgCl2, 0.05% IGEPAL) at room temperature for 15 min. […] of this reaction mix was aliquoted with GNF WDII (USA) into wells of 1536 well plates, with a final concentration of […] compound or DMSO. The plates were spun down and read in a BMG Pherastar FS (Germany) plate reader plate reader, in FP mode with a 485/520/520 polarization filter, calibrated to 35 mP for free fluorescein with similar total intensity as experimental samples. […]
To determine the quality of the inventors screening assay, the Z′ factor for each plate was calculated with a Z′ factor greater than 0.5 indicating a robust assay suitable for high throughput screening. Compounds that altered the overall fluorescence intensity compared to controls were considered auto florescence and excluded from further analysis. […] Any small molecule that causes a change of more than three standard deviations from the mean is determined appropriate for further investigation.

G9a = G9a (Homo sapiens, UniProt Q96KQ7); test: G9a fluorescence polarization enzymatic activity assay; format: biochemical; settings: increasing concentrations
G9a, sequence (Q96KQ7 whole entry, species assumed): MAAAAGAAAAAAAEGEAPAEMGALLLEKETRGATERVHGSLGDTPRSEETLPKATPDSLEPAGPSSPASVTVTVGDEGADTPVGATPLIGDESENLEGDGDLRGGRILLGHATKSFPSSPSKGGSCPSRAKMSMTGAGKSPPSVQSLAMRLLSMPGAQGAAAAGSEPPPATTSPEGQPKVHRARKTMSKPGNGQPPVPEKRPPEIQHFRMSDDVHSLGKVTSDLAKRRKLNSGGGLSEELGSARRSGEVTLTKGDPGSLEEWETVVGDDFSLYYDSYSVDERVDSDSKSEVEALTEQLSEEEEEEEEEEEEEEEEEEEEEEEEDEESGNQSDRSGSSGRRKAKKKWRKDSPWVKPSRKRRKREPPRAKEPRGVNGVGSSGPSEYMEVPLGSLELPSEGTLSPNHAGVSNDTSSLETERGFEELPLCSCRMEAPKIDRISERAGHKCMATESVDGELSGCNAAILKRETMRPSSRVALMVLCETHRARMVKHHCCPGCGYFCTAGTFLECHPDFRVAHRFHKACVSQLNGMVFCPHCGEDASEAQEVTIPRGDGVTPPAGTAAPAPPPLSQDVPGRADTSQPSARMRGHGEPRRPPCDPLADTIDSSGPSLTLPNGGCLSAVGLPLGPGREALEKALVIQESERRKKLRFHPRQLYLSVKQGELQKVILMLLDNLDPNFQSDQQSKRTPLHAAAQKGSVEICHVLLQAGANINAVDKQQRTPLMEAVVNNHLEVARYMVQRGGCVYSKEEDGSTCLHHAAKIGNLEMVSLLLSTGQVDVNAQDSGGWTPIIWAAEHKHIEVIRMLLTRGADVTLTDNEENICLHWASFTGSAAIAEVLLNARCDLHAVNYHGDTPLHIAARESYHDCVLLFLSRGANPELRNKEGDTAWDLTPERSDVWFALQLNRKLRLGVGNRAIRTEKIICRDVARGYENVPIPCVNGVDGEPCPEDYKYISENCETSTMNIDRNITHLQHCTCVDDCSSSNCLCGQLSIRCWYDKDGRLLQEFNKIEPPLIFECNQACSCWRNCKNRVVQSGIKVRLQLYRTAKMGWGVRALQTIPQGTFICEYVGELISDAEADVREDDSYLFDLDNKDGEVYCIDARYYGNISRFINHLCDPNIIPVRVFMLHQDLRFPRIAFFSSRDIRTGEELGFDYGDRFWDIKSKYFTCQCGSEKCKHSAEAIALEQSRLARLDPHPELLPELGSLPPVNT
Procedure: For the small molecule screen, compounds were obtained from the collection maintained at the Grand Israel National Center for Personalized Medicine, consisting of molecules purchased from commercial vendors. Labelled RNA (10 nM) was incubated with recombinant Igf2bp1 protein (400 nM) in FAM-RNA buffer (10 mM Tris pH 8.0, 75 mM KCl, 0.5 mM EDTA, 1 mM DTT, 0.0188 U/μL RNAsin, 0.0005 μg/mL heparin, 0.0001 μg/μL tRNA, 0.01% Triton X-100, 3 mM MgCl2, 0.05% IGEPAL) at room temperature for 15 min. […] of this reaction mix was aliquoted with GNF WDII (USA) into wells of 1536 well plates, with a final concentration of […] compound or DMSO. The plates were spun down and read in a BMG Pherastar FS (Germany) plate reader plate reader, in FP mode with a 485/520/520 polarization filter, calibrated to 35 mP for free fluorescein with similar total intensity as experimental samples. The G9a FP assay was based on using an S-adenosylhomocysteine (SAH)-FITC probe and antibody to SAH to produce a high FP signal when the antibody binds to SAH-FITC. Unlabeled SAH produced by incubation of G9a enzyme with S-adenosylmethionine (SAM) and peptide substrate competes for the antibody and results in a low FP signal. 100% activity means that G9a is fully active and therefore a low FP signal is observed (SAH is produced).

[2] = tested on: LKR-M cells transfected with full length human Igf2bp1-GFP; test: Wound healing assay, LKR-M cells expressing human Igf2bp1-GFP; format: cell-based, mouse; parameters: dose or concentration left out as unconfirmed; settings: 7773 vs DMSO
Procedure: (§1) Cells were seeded in 96 IncuCyte® ImageLock plates (20×10^3 cells per well) for 24 hours, to a near confluency of 95%, before the addition of increasing concentrations of compound. After a further 24 hours, wells were scratched using the IncuCyte® 96-well WoundMaker Tool, and the cells cultured for an additional 48 hours using the IncuCyte® S3 Live-Cell Analysis System (Essen BioScience). The plate was imaged at increments of 120 minutes for a period of 48 hours, and then analyzed for relative wound healing.

cMyc mRNA = cMyc mRNA levels in different cell lines; format: cell-based
Procedure: Primers were calibrated for several Igf2bp1 RNA targets (Table 3): […]
Cells were grown for 12 hours in 12 well plates prior to incubation with the compound at different concentrations for an additional 12 or 24 hours. Total RNA was then extracted using EZ-RNA total RNA isolation kit (Biological Industries) and cDNA prepared from the RNA using the First Strand cDNA Synthesis kit (Quanta bio). Real time PCR was performed with Fast SYBR Green Master Mix (Thermo Fisher Scientific), and cDNA expression analyzed with the Bio-Rad CFX Manager 3.1.

[3] = tested on: Kras protein in H1299 cells; test: Western blot of Kras protein in H1299 cells; format: cell-based, human; settings: H1299, 10 and 20 μM 7773, 48 hours
Procedure: Western blots were performed as previously described. For fluorescent westerns, cell lysates were prepared with phosphatase inhibitors (β-Glycerophosphate and Sodium orthovanadate) and a protease inhibitor (cOmplete™, Mini Protease Inhibitor Cocktail, Roche 04693124001), membranes were read using a Li-Core Odyssey laser scanner, and results analyzed using Image Studio Lite software.
The following primary antibodies were used: mouse anti-total ERK (p44/42 MAPK (Erk1/2) L34F12 Cell Signaling 4696s), mouse anti-Kras (CPTC-KRAS4B-2, DSHB) rabbit anti-dpERK, (p44/42 MAPK, Cell Signaling 4370), rabbit anti-alpha/beta tubulin (Cell Signaling 2148), goat anti-rabbit IgG-HRP (Jackson), goat anti-mouse IgG-HRP (Jackson). Secondary antibodies for fluorescent westerns: donkey anti-mouse 800 (Rockland 610-732-124), goat anti-rabbit 680 (Molecular Probes A21076).

ES2 cells [4] = test: Wound healing (cell migration) assay, ES2 cells; format: cell-based, human
Procedure: as §1

HEK293 cells = test: Wound healing (cell migration) assay, HEK293 cells; format: cell-based, human
Procedure: as §1

ES2 cells [5] = test: Cell proliferation assay (Incucyte), ES2 cells; format: cell-based, human; parameters: dose or concentration left out as unconfirmed; settings: ES2, up
Procedure: ES2, H1299 and HEK293 cells were seeded in a 96 well plate (5×10^3 cells per well) for 24 hours before adding the compound at increasing concentrations. After an additional 24 hours, the plate was incubated in an IncuCyte® S3 Live-Cell Analysis System (Essen BioScience). The wells were filmed for 72 hours, and then analyzed for proliferation rate Using IncuCyte® S3 Live-Cell Analysis System (Essen BioScience)

IC50 [1]: ~30 µM and 15 to 36 µM
SMILES: O=C(c1ccc(Cn2cnnn2)cc1)N1CCCC(Nc2ccc3c(c2)OCO3)C1 (stereo not shown) [Compound 7773]
Inhibition of G9a enzymatic activity (G9a): almost no effect; also recorded: does not inhibit
Inhibition of Igf2bp1-GFP enhanced wound healing [2]: significantly inhibited
Reduction of cMyc mRNA levels (cMyc mRNA): 50-60%
Kras protein expression [3]: dose-dependent reduction
Inhibition of wound healing (ES2 cells [4]; ES2, 5 mM 7773): discernible inhibition
Inhibition of wound healing (ES2 cells [4]; ES2, 20 mM 7773): strongly inhibited
Inhibition of wound healing (HEK293 cells; HEK293, 5 mM 7773): discernible inhibition
Inhibition of wound healing (HEK293 cells; HEK293, 20 mM 7773): strongly inhibited
Cell proliferation (ES2 cells [5]): remarkably unaffected
